# Reference: patent publication US8278464B2, “Insecticides” (Syngenta Crop Protection LLC, priority 2006, dated 2012)
# Experiments:
# Type in all cases: in vivo
# [1] = tested on: Thrips tabaci (Onion Thrips); assay: Activity against Thrips tabaci, sunflower leaf discs (Example B7); conditions: foliar, 144 h, incubation 6 days
# Procedure: Sunflower leaf discs are placed on agar in a 24-well microtiter plate and sprayed with test solutions. After drying, the leaf discs are infested with a thrips population of mixed ages. After an incubation period of 6 days, samples are checked for mortality and special effects (e.g. phytotoxicity).
# [2] = tested on: Myzus persicae (Green Peach Aphid); assay: Activity against Myzus persicae, systemic, pea seedlings (Example B6); conditions: 144 h, 6 days after introduction
# Source text: Roots of pea seedlings, infested with an aphid population of mixed ages, are placed directly in the test solutions. 6 days after introduction, samples are checked for mortality and special effects on the plant.
# [3] = tested on: Heliothis virescens (Tobacco Budworm); assay: Activity against Heliothis virescens, eggs on artificial diet (Example B2); conditions: 96 h, eggs 0-24 h old, incubation 4 days
# Procedure: Eggs (0-24 h old) are placed in 24-well microtiter plate on artificial diet and treated with test solutions by pipetting. After an incubation period of 4 days, samples are checked for egg mortality, larval mortality, and growth regulation.
# [4] = tested on: Spodoptera littoralis (Cotton Leafworm); assay: Systemic insecticide test for Spodoptera littoralis, maize seedlings, 12.5 ppm (Example B9); conditions: 96 h, 12.5 ppm in water, systemic via maize seedlings, larvae incubated four days
# Procedure: (§1) Four day old maize seedlings (Zea mais, variety Stoneville) are placed individual in vials containing 24 ml water into which the chemical is diluted at 12.5 ppm. Seedlings are allowed to grow for six days. Subsequently leaves are cut and placed in a Petri dish (5 cm diameter), inoculated with twelve to fifteen 1st instar S. littoralis larvae and incubated for four days in a growth chamber (25° C., 50% r.h., 18:6 L:D photo period). Number of alive insects are counted and percentage of dead calculated. Tests were conducted with one replicate.
# [5] = tested on: Myzus persicae (Green Peach Aphid); assay: Activity against Myzus persicae, contact, sunflower leaf discs (Example B5); conditions: foliar, 144 h, 6 DAT
# Procedure: Sunflower leaf discs are placed on agar in a 24-well microtiter plate and sprayed with test solutions. After drying, the leaf discs are infested with an aphid population of mixed ages. After an incubation period of 6 DAT, samples are checked for mortality and special effects (e.g. phytotoxicity).
# [6] = tested on: Diabrotica balteata (Corn Root Worm); assay: Activity against Diabrotica balteata, artificial diet MTP (Example B4); conditions: 120 h, L2 larvae, incubation 5 days
# Procedure: (§2) 24-well microtiter plate (MTP) with artificial diet is treated with test solutions by pipetting. After drying, the MTP's are infested with larvae (L2) (6-10 per well). After an incubation period of 5 days, samples are checked for larval mortality, antifeedant and growth regulation. In this test, compounds listed in the Tables above show good activity. In particular compounds T13.1.2, T15.1.1, T15.1.91, T13.1.1, T9.1.2 (diastereomer A), T9.1.2 (diastereomer B), T17.1.2 (diastereomer A), T17.1.2 (diastereomer B), T16.1.91, T13.1.92, T13.1.91, T13.1.6, T13.1.96, T44.1.2, T13.1.8, T13.1.23, T13.1.113, T13.1.21, T13.1.111 have an activity of over 80% at 400 ppm.
# [7] = tested on: Spodoptera littoralis (Egyptian Cotton Leafworm); assay: Activity against Spodoptera littoralis, cotton leaf discs sprayed (Example B1); conditions: foliar, 72 h, L1 larvae, checked 3 days after treatment
# Source text: Cotton leaf discs are placed on agar in a 24-well microtiter plate and sprayed with test solutions. After drying, the leaf discs are infested with 5 L1 larvae. The samples are checked for mortality, repellent effect, feeding behaviour, and growth regulation 3 days after treatment (DAT).
# [8] = tested on: Plutella xylostella (Diamond Back Moth); assay: Activity against Plutella xylostella, artificial diet MTP (Example B3); conditions: 120 h, L2 larvae, incubation 5 days
# Procedure: as §2, with “larvae (L2) (10-15 per well).” for “larvae (L2) (6-10 per well).”, “(diastereomer B), T16.1.1, T17.1.2 (diastereomer” for “(diastereomer B), T17.1.2 (diastereomer”, “T16.1.91, T13.1.92, T13.1.361, T13.1.391, T13.1.91, T13.1.6,” for “T16.1.91, T13.1.92, T13.1.91, T13.1.6,”, “T13.1.8, T13.1.23, T13.1.93, T13.1.113, T13.1.21,” for “T13.1.8, T13.1.23, T13.1.113, T13.1.21,”
# [9] = tested on: Spodoptera littoralis (Lepidoptera:Noctuidae); assay: Systemic insecticide test for Spodoptera littoralis, comparison with state of the art (Example B11)
# Procedure: as §1, with “the prescribed concentrations (3 and 0.8 ppm).” for “12.5 ppm.”, “(3.5” for “(5”, “calculated. Effects on larvae growth were compared to the control and percentage of larvae growth reduction calculated.” for “calculated.”
Structure (SMILES),pest or weed control at 400 ppm [1],pest or weed control at 400 ppm [2],pest or weed control at 400 ppm [3],pest or weed control at 12.5 ppm [4],pest or weed control at 400 ppm [5],pest or weed control at 400 ppm [6],pest or weed control at 400 ppm [7],pest or weed control at 400 ppm [8],Death rate (%) after 4 days ([9]; concentration 0.8 ppm),Larvae growth reduction (% compared to control) ([9]; concentration 0.8 ppm),Death rate (%) after 4 days ([9]; concentration 3 ppm),Larvae growth reduction (% compared to control) ([9]; concentration 3 ppm)
"Cc1cc(Cl)cc(C(=O)NC2(C)CS(=N)(=O)C2)c1NC(=O)c1cc(C(F)(F)F)nn1-c1ncccc1Cl (single isomer, unassigned) [T17.1.2 (diastereomer A)]",> 80%,> 80%,> 80%,> 80%,> 80%,> 80%,> 80%,> 80%,–,–,–,–
"Cc1cc(Cl)cc(C(=O)NC2(C)C[S+]([O-])C2)c1NC(=O)c1cc(C(F)(F)F)nn1-c1ncccc1Cl (single isomer, unassigned) [T9.1.2 (diastereomer A)]",> 80%,> 80%,> 80%,> 80%,> 80%,> 80%,> 80%,> 80%,–,–,–,–
"Cc1cc(Cl)cc(C(=O)NC2(C)CS(=O)(=O)C2)c1NC(=O)c1cc(C(F)(F)F)nn1-c1ncccc1Cl [T13.1.2, 2-(3-Chloro-pyridin-2-yl)-5-trifluoromethyl-2H-pyrazole-3-carboxylic acid [4-chloro-2-methyl-6-(3-methyl-1,1-dioxo-1λ^6-thietan-3-ylcarbamoyl)-phenyl]-amide]",> 80%,> 80%,> 80%,> 80%,> 80%,> 80%,> 80%,> 80%,–,–,–,–
"O=C(NC1CCC1)c1cccc(Cl)c1NC(=O)c1cc(C(F)(F)F)nn1-c1ncccc1Cl [Comp. 296, reference compound]",–,–,–,–,–,–,–,–,0%,0%,0%,0%
Cc1cc(C#N)cc(C(=O)NC2(C)CS(=O)(=O)C2)c1NC(=O)c1cc(C(F)(F)F)nn1-c1ncccc1Cl [T13.1.92],> 80%,> 80%,> 80%,> 80%,> 80%,> 80%,> 80%,> 80%,–,–,–,–
Cc1cc(Cl)cc(C(=O)NC2CS(=O)(=O)C2)c1NC(=O)c1cc(OCC(F)(F)F)nn1-c1ncccc1Cl [T13.1.21],> 80%,> 80%,> 80%,–,> 80%,> 80%,> 80%,> 80%,–,–,–,–
Cc1cc(C#N)cc(C(=O)NC2CS(=O)(=O)C2)c1NC(=O)c1cc(Br)nn1-c1ncccc1Cl [T13.1.96],> 80%,> 80%,> 80%,> 80%,> 80%,> 80%,> 80%,> 80%,–,–,–,–
O=C(NC1CS(=O)(=O)C1)c1cccc(Cl)c1NC(=O)c1cc(C(F)(F)F)nn1-c1ncccc1Cl [T13.1.391],–,–,> 80%,> 80%,–,–,> 80%,> 80%,10%,0%,55%,100%
